Counter-ions that a name gives are not always drawn.

T1 sequence (P00533 25-1210 C797S/L858R): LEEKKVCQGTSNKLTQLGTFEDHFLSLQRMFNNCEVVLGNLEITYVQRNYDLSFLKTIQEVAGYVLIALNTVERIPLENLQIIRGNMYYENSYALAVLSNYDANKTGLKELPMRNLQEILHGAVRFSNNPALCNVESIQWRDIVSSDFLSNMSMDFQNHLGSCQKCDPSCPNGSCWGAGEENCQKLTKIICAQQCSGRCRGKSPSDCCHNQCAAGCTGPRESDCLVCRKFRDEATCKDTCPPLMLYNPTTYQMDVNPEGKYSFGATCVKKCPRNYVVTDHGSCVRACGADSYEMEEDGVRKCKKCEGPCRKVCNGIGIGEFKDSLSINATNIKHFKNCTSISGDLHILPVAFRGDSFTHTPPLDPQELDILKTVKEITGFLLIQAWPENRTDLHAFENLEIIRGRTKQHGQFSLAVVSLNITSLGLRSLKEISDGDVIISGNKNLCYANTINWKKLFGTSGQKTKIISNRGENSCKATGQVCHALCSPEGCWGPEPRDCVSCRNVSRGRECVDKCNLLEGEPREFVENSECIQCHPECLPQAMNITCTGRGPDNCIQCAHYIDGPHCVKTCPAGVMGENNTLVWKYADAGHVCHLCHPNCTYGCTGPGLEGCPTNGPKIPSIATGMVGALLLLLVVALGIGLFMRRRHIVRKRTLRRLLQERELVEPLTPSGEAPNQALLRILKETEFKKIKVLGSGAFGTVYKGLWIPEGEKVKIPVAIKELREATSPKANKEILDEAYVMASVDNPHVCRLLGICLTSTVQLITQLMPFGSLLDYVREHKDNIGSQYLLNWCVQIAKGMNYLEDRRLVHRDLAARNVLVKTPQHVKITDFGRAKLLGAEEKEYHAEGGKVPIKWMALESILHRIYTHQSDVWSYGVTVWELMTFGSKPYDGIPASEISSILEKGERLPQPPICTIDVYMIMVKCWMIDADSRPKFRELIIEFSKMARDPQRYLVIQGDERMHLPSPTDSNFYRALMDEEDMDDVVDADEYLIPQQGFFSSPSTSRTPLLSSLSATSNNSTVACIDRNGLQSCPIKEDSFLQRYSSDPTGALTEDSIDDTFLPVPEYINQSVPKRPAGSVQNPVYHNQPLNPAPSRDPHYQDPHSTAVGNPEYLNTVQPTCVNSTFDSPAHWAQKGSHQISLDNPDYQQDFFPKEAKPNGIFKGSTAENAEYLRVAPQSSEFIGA

The test addresses T1, EGFR LRCS (BaF3-LRCS cell line) (Homo sapiens, UniProt P00533, C797S/L858R).
T1 construct: host or cells: BaF3 (BaF3-LRCS engineered line, kept under puromycin)
Nature of the test: HTRF Phospho EGFR LRCS assay (cellular). The test is classed as cell-based. The note with it: BaF3-LRCS cells, 4 hours incubation with compound, Phospho-EGFR HTRF readout. On the procedure:
HTRF Phospho EGFR LRCS Assay (Cellular)
BaF3-LRCS cell line were obtained from Crownbio (San Diego, CA, USA). Cells were maintained at 37° C., 5% CO2 in RPMI ATCC (Gibco 31870)+2 mM Glutamine+0.5 μg/ml Puromycin supplemented with 10% fetal bovine serum (FBS) (Gibco).
Cells are transferred as above to Greiner Bio-One, Nr. 784-08 micro-titerplate at 20000 cells/well in 12.5 μl of growth medium/well after the plates had been pre-filled with 12.5 nl of DMSO solutions of the to be tested compounds (in dose response) or DMSO only. After spinning the plates at 300×g for 30 seconds the cells were incubated for 4 hours at 37 C, 5% CO2, 95% humidity. The cells were lysed by adding to the compound mix 4 μl/well of the supplemented lysis buffer (Cis-bio, Phospho-EGFR HTRF kit, 64EG1PEH), followed by incubation for 30 min at room temperature with shaking (400 rpm). The plates were then frozen and stored overnight at −80° C. On the next day and after thawing the plates, 4 μl of a mixture of anti-Phospho-EGFR Cryptate and of anti-Phospho-EGFR-d2 antibody solutions prepared in the supplied detection buffer was added to each well. The lidded plates were then incubated for 4 h at room temperature before reading the fluorescence emission at 616 and 665 nm using an Envision reader (Perkin Elmer). Data was analyzed in similar fashion as above using the normalized ratio of the 665 to 616 signals multiplied by 10000.
Background: Time-resolved FRET reads energy transfer from a long-lived donor to a nearby acceptor.
Consider `CCN1CC[C@@H](c2ccc(-c3cc(C(F)F)c4cn(C(C(=O)Nc5nccs5)c5ncn6c5C[C@@H](F)C6)nc4c3C)cc2)[C@H](F)C1` (single isomer, unassigned) [Example 2, 2-[4-(Difluoromethyl)-6-[4-[(3S,4S)-1-ethyl-3-fluoro-4-piperidyl]phenyl]-7-methyl-indazol-2-yl]-2-[(6R)-6-fluoro-6,7-dihydro-5H-pyrrolo[1,2-c]imidazol-1-yl]-N-thiazol-2-yl-acetamide or 2-[4-(Difluoromethyl)-6-[4-[(3R,4R)-1-ethyl-3-fluoro-4-piperidyl]phenyl]-7-methyl-indazol-2-yl]-2-[(6R)-6-fluoro-6,7-dihydro-5H-pyrrolo[1,2-c]imidazol-1-yl]-N-thiazol-2-yl-acetamide], for which the IC50 came out at 15 nM. Take `Cc1c(-c2ccc(N3CCOCC3)cc2)cc(C(F)F)c2cn(C(C(=O)Nc3nccs3)c3ncn4c3C[C@@H](F)C4)nc12` (stereo partly drawn) [Example 1, 2-[4-(Difluoromethyl)-7-methyl-6-(4-morpholinophenyl)indazol-2-yl]-2-[(6R)-6-fluoro-6,7-dihydro-5H-pyrrolo[1,2-c]imidazol-1-yl]-N-thiazol-2-yl-acetamide]: the IC50 is 8 nM.

With `CNCCc1ccc(-c2cc(C(F)F)c3cn(C(C(=O)Nc4nccs4)c4ncn5c4C[C@@H](F)C5)nc3c2C)cc1` (stereo partly drawn) [Example 3, 2-[4-(Difluoromethyl)-7-methyl-6-[4-[2-(methylamino)ethyl]phenyl]indazol-2-yl]-2-[(6R)-6-fluoro-6,7-dihydro-5H-pyrrolo[1,2-c]imidazol-1-yl]-N-thiazol-2-yl-acetamide Hydrochloride], the IC50 turned out to be 18 nM. Take `Cc1c(-c2ccc(CCN(C)C)cc2)cc(C(F)F)c2cn(C(C(=O)Nc3nccs3)c3ncn4c3C[C@@H](F)C4)nc12` (stereo partly drawn) [Example 4, 2-[4-(Difluoromethyl)-6-[4-[2-(dimethylamino)ethyl]phenyl]-7-methyl-indazol-2-yl]-2-[(6R)-6-fluoro-6,7-dihydro-5H-pyrrolo[1,2-c]imidazol-1-yl]-N-thiazol-2-yl-acetamide]: the IC50 came out at 11 nM.

Take `Cc1c(-c2ccc(OCCN3CCC(CO)CC3)cc2)cc(C(F)F)c2cn(C(C(=O)Nc3nccs3)c3ncn4c3C[C@@H](F)C4)nc12` (stereo partly drawn) [Example 5, 2-[4-(Difluoromethyl)-6-[4-[2-[4-(hydroxymethyl)-1-piperidyl]ethoxy]phenyl]-7-methyl-indazol-2-yl]-2-[(6R)-6-fluoro-6,7-dihydro-5H-pyrrolo[1,2-c]imidazol-1-yl]-N-thiazol-2-yl-acetamide]: the IC50 came out at 19 nM. The value for `Cc1c(-c2ccc(CN3CCC(CO)CC3)cc2)cc(C(F)F)c2cn(C(C(=O)Nc3nccs3)c3ncn4c3C[C@@H](F)C4)nc12` (stereo partly drawn) [Example 6, 2-[4-(Difluoromethyl)-6-[4-[[4-(hydroxymethyl)-1-piperidyl]methyl]phenyl]-7-methyl-indazol-2-yl]-2-[(6R)-6-fluoro-6,7-dihydro-5H-pyrrolo[1,2-c]imidazol-1-yl]-N-thiazol-2-yl-acetamide] was 16 nM. The value for `Cc1c(-c2ccc(CN3CCC(O)CC3)cc2)cc(C(F)F)c2cn(C(C(=O)Nc3nccs3)c3ncn4c3C[C@@H](F)C4)nc12` (stereo partly drawn) [Example 7, 2-[4-(Difluoromethyl)-6-[4-[(4-hydroxy-1-piperidyl)methyl]phenyl]-7-methyl-indazol-2-yl]-2-[(6R)-6-fluoro-6,7-dihydro-5H-pyrrolo[1,2-c]imidazol-1-yl]-N-thiazol-2-yl-acetamide] was 14 nM; that for `Cc1c(-c2ccc(N3CCOCC3)cc2)cc(C(F)F)c2cn(C(C(=O)Nc3nccs3)c3ncn4c3CCC4)nc12` (stereo not drawn) [Example 8, 2-[4-(Difluoromethyl)-7-methyl-6-(4-morpholinophenyl)indazol-2-yl]-2-(6,7-dihydro-5H-pyrrolo[1,2-c]imidazol-1-yl)-N-thiazol-2-yl-acetamide] was 17 nM; that for `Cc1c(-c2ccc(CCN3CCC(CO)CC3)cc2)cc(C(F)F)c2cn(C(C(=O)Nc3nccs3)c3ncn4c3C[C@@H](F)C4)nc12` (stereo partly drawn) [Example 9, 2-[4-(Difluoromethyl)-6-[4-[2-[4-(hydroxymethyl)-1-piperidyl]ethyl]phenyl]-7-methyl-indazol-2-yl]-2-[(6R)-6-fluoro-6,7-dihydro-5H-pyrrolo[1,2-c]imidazol-1-yl]-N-thiazol-2-yl-acetamide] was 27 nM. Then `Cc1c(-c2ccc(OCCN3CCC(O)CC3)cc2)cc(C(F)F)c2cn(C(C(=O)Nc3nccs3)c3ncn4c3C[C@@H](F)C4)nc12` (stereo partly drawn) [Example 10, 2-[4-(Difluoromethyl)-6-[4-[2-(4-hydroxy-1-piperidyl)ethoxy]phenyl]-7-methyl-indazol-2-yl]-2-[(6R)-6-fluoro-6,7-dihydro-5H-pyrrolo[1,2-c]imidazol-1-yl]-N-thiazol-2-yl-acetamide], with 17 nM; and `Cc1c(-c2ccc(N3CCC(O)CC3)cc2)cc(C(F)F)c2cn(C(C(=O)Nc3nccs3)c3ncn4c3C[C@@H](F)C4)nc12` (stereo partly drawn) [Example 11, 2-[4-(Difluoromethyl)-6-[4-(4-hydroxy-1-piperidyl)phenyl]-7-methyl-indazol-2-yl]-2-[(6R)-6-fluoro-6,7-dihydro-5H-pyrrolo[1,2-c]imidazol-1-yl]-N-thiazol-2-yl-acetamide], with 10 nM; and `Cc1c(-c2ccc(CN3CCC(C(C)O)CC3)cc2)cc(C(F)F)c2cn(C(C(=O)Nc3nccs3)c3ncn4c3C[C@@H](F)C4)nc12` (stereo partly drawn) [Example 12, 2-[4-(Difluoromethyl)-6-[4-[[4-(1-hydroxyethyl)-1-piperidyl]methyl]phenyl]-7-methyl-indazol-2-yl]-2-[(6R)-6-fluoro-6,7-dihydro-5H-pyrrolo[1,2-c]imidazol-1-yl]-N-thiazol-2-yl-acetamide], with 18 nM.

With `Cc1c(-c2ccc(N3CCN4CCC3C4)cc2)cc(C(F)F)c2cn(C(C(=O)Nc3nccs3)c3ncn4c3C[C@@H](F)C4)nc12` (stereo partly drawn) [Example 13, 2-[6-[4-(1,4-Diazabicyclo[3.2.1]octan-4-yl)phenyl]-4-(difluoromethyl)-7-methyl-indazol-2-yl]-2-[(6R)-6-fluoro-6,7-dihydro-5H-pyrrolo[1,2-c]imidazol-1-yl]-N-thiazol-2-yl-acetamide], the 50% inhibitory concentration (IC50) stood at 17 nM. Turning to `Cc1c(-c2ccc(CCN3CCC(C(C)O)CC3)cc2)cc(C(F)F)c2cn(C(C(=O)Nc3nccs3)c3ncn4c3C[C@@H](F)C4)nc12` (stereo partly drawn) [Example 14, 2-[4-(Difluoromethyl)-6-[4-[2-[4-(1-hydroxyethyl)-1-piperidyl]ethyl]phenyl]-7-methyl-indazol-2-yl]-2-[(6R)-6-fluoro-6,7-dihydro-5H-pyrrolo[1,2-c]imidazol-1-yl]-N-thiazol-2-yl-acetamide], the IC50 came out at 16 nM.

In the case of `Cc1c(-c2ccc(C3CC(CN4CCC(CO)CC4)C3)cc2)cc(C(F)F)c2cn(C(C(=O)Nc3nccs3)c3ncn4c3C[C@@H](F)C4)nc12` (stereo partly drawn) [Example 15, 2-[4-(Difluoromethyl)-6-[4-[3-[[4-(hydroxymethyl)-1-piperidyl]methyl]cyclobutyl]phenyl]-7-methyl-indazol-2-yl]-2-[(6R)-6-fluoro-6,7-dihydro-5H-pyrrolo[1,2-c]imidazol-1-yl]-N-thiazol-2-yl-acetamide], the IC50 came out at 24 nM.

One may read the IC50 as the midpoint of a concentration-inhibition curve.
